Experiments:
Type in all cases: in vivo
[1] = tested on: Amaranthus viridis (green amaranthus); assay: Test Example-2: herbicidal effect by a soil treatment before weeds are generated under upland field conditions; details: application amount 500 g a.i/ha, soil spray treatment before weeds are generated, about 21 days after the treatment, score 0 to 5
Excerpt: (§1) Using the formulation prepared according to the methods described above, the herbicidal effect of the bicyclic pyrazolinone derivative of the invention according to the methods shown in Test Examples below was examined. The herbicidal effect with respect to the test weeds or the phytotoxicity with respect to the test crops was examined according to the following criteria, and evaluated in six stage scores of 0 to 5. A vat having an area of 81 cm^2 and a depth of 3.5 cm was filled with upland soil, then, seeds of Amaranthus viridis (green amaranthus), Chenopodium album (common lambsquarters), and corn were seeded thereto, and the seeds were covered with soil of about 0.5 cm. Next day, a wettable powder or an emulsifiable concentrate of the compound of the present invention prepared according to Formulation Example was diluted, and a spray treatment was uniformly performed on the covered oil so as to be a predetermined dosage. The herbicidal effect with respect to the test weeds and the phytotoxicity with respect to corn about 21 days after the treatment were evaluated according to the evaluation criteria in six stages of 0 to 5 described above.

[2] = tested on: Chenopodium album (common lambsquarters); assay: as above; details: application amount 500 g a.i/ha, soil spray treatment before weeds are generated, about 21 days after the treatment, score 0 to 5
Excerpt: as §1

corn [3] = assay: Test Example-2: phytotoxicity by a soil treatment before weeds are generated under upland field conditions; details: application amount 500 g a.i/ha, soil spray treatment before weeds are generated, about 21 days after the treatment, score 0 to 5
Excerpt: as §1

[4] = tested on: Abutilon theophrasti (velvetleaf); assay: Test Example-4: herbicidal effect by a foliage treatment after weeds are generated under upland field conditions; details: 500 g a.i/ha, foliage treatment after emergence, about 14 days after treatment, score 0-5
Summary of the method: (§2)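 Compounds were applied as diluted formulations by foliar spray (4000 L water/ha) to 14-day-old plants grown in upland soil. Weed control and corn phytotoxicity were each graded 0 to 5 around 14 days after spraying.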

[5] = tested on: Amaranthus viridis (green amaranthus); assay: as above; details: 500 g a.i/ha, foliage treatment after emergence, about 14 days after treatment, score 0-5
Summary of the method: as §2

[6] = tested on: Chenopodium album (common lambsquarters); assay: as above; details: 500 g a.i/ha, foliage treatment after emergence, about 14 days after treatment, score 0-5
Summary of the method: as §2

corn [7] = assay: Test Example-4: phytotoxicity by a foliage treatment after weeds are generated under upland field conditions; details: 500 g a.i/ha, foliage treatment after emergence, about 14 days after treatment, score 0-5
Summary of the method: as §2

[8] = tested on: Cyperus difformis (smallflower umbrella plant); assay: Test Example-1: herbicidal effect by a treatment before weeds are generated under submerged conditions; details: 500 g a.i/ha, pre-emergence treatment, about 15 days after treatment, score 0-5
Summary of the method: (§3)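 Flooded paddy-soil cups, seeded and treated by submersion application on sowing day; rated 0–5 ~15 d later.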

[9] = tested on: Echinochloa oryzicola (barnyard grass); assay: as above; details: 500 g a.i/ha, pre-emergence treatment, about 15 days after treatment, score 0-5
Summary of the method: as §3

[10] = tested on: Eleocharis acicularis (needle spikerush); assay: as above; details: 500 g a.i/ha, pre-emergence treatment, about 15 days after treatment, score 0-5
Summary of the method: as §3

[11] = tested on: Monochoria vaginalis (monochoria); assay: as above; details: 500 g a.i/ha, pre-emergence treatment, about 15 days after treatment, score 0-5
Summary of the method: as §3

[12] = tested on: Scirpus juncoides (bulrush); assay: as above; details: 500 g a.i/ha, pre-emergence treatment, about 15 days after treatment, score 0-5
Summary of the method: as §3

[13] = tested on: other annual broad leaf weeds (Lindernia procumbens, Rotala indica, Elatine triandra); assay: as above; details: 500 g a.i/ha, pre-emergence treatment, about 15 days after treatment, score 0-5
Summary of the method: as §3

| Structure (SMILES) | Herbicidal effect Amaranthus viridis [1] | Herbicidal effect Chenopodium album [2] | Phytotoxicity Corn (corn [3]) | Herbicidal effect Abutilon theophrast [4] | Herbicidal effect Amaranthus viridis [5] | Herbicidal effect Chenopodium album [6] | Phytotoxicity Corn (corn [7]) | Herbicidal effect Cyperus difformis [8] | Herbicidal effect Echinochloa oryzicola [9] | Herbicidal effect Eleocharis acicularis [10] | Herbicidal effect Monochoria vaginalis [11] | Herbicidal effect Scirpus juncoides [12] | Herbicidal effect Broadleaf weed [13] |
| --- | --- | --- | --- | --- | --- | --- | --- | --- | --- | --- | --- | --- | --- |
| Cc1ccc(Oc2cc(-c3c(Cl)n4n(c3=O)CCCC4)c(F)cc2Cl)c(O)c1 [Compound 3-40] | 5 (Herbicidal effect/phytotoxicity was 90% or greater) | 5 (Herbicidal effect/phytotoxicity was 90% or greater) | 0 (Herbicidal effect/phytotoxicity was 0% to 10%) | – | – | – | – | – | – | – | – | – | – |
| C#CCOc1cc(-c2c(Cl)n3n(c2=O)CCCCC3)c(F)cc1Cl [Example 1-239] | 5 (Herbicidal effect/phytotoxicity was 90% or greater) | 5 (Herbicidal effect/phytotoxicity was 90% or greater) | 0 (Herbicidal effect/phytotoxicity was 0% to 10%) | 5 (Herbicidal effect/phytotoxicity was 90% or greater) | 5 (Herbicidal effect/phytotoxicity was 90% or greater) | 5 (Herbicidal effect/phytotoxicity was 90% or greater) | 2 (Herbicidal effect/phytotoxicity was 30% to 50%) | – | – | – | – | – | – |
| O=c1c(-c2cc(NS(=O)(=O)C3CC3)c(Cl)cc2F)c(Cl)n2n1CCCC2 [Example 5-58] | 5 (Herbicidal effect/phytotoxicity was 90% or greater) | 5 (Herbicidal effect/phytotoxicity was 90% or greater) | 0 (Herbicidal effect/phytotoxicity was 0% to 10%) | 5 (Herbicidal effect/phytotoxicity was 90% or greater) | 5 (Herbicidal effect/phytotoxicity was 90% or greater) | 5 (Herbicidal effect/phytotoxicity was 90% or greater) | 0 (Herbicidal effect/phytotoxicity was 0% to 10%) | – | – | – | – | – | – |
| O=c1c(-c2cc(NS(=O)(=O)CCl)c(Cl)cc2F)c(Cl)n2n1CCOCC2 [Example 5-49] | 5 (Herbicidal effect/phytotoxicity was 90% or greater) | 5 (Herbicidal effect/phytotoxicity was 90% or greater) | 0 (Herbicidal effect/phytotoxicity was 0% to 10%) | 5 (Herbicidal effect/phytotoxicity was 90% or greater) | 5 (Herbicidal effect/phytotoxicity was 90% or greater) | 5 (Herbicidal effect/phytotoxicity was 90% or greater) | 1 (Herbicidal effect/phytotoxicity was 10% to 30%) | – | – | – | – | – | – |
| CS(=O)(=O)Nc1cc(-c2c(Cl)n3n(c2=O)CCCC3)c(F)cc1Cl [Example 5-35] | 5 (Herbicidal effect/phytotoxicity was 90% or greater) | 5 (Herbicidal effect/phytotoxicity was 90% or greater) | 0 (Herbicidal effect/phytotoxicity was 0% to 10%) | 5 (Herbicidal effect/phytotoxicity was 90% or greater) | 5 (Herbicidal effect/phytotoxicity was 90% or greater) | 5 (Herbicidal effect/phytotoxicity was 90% or greater) | 0 (Herbicidal effect/phytotoxicity was 0% to 10%) | – | – | – | – | – | – |
| CS(=O)(=O)N(c1cc(-c2c(Cl)n3n(c2=O)CCCC3)c(F)cc1Cl)S(C)(=O)=O [Example 5-71] | 5 (Herbicidal effect/phytotoxicity was 90% or greater) | 5 (Herbicidal effect/phytotoxicity was 90% or greater) | 0 (Herbicidal effect/phytotoxicity was 0% to 10%) | 5 (Herbicidal effect/phytotoxicity was 90% or greater) | 5 (Herbicidal effect/phytotoxicity was 90% or greater) | 5 (Herbicidal effect/phytotoxicity was 90% or greater) | 0 (Herbicidal effect/phytotoxicity was 0% to 10%) | – | – | – | – | – | – |
| C#CCOc1cc(-c2c(Cl)n3n(c2=O)CCCCC3)c(F)cc1F [Example 1-367] | 5 (Herbicidal effect/phytotoxicity was 90% or greater) | 5 (Herbicidal effect/phytotoxicity was 90% or greater) | 0 (Herbicidal effect/phytotoxicity was 0% to 10%) | – | – | – | – | 5 (Herbicidal effect/phytotoxicity was 90% or greater) | 5 (Herbicidal effect/phytotoxicity was 90% or greater) | 5 (Herbicidal effect/phytotoxicity was 90% or greater) | 5 (Herbicidal effect/phytotoxicity was 90% or greater) | 5 (Herbicidal effect/phytotoxicity was 90% or greater) | 5 (Herbicidal effect/phytotoxicity was 90% or greater) |
| CCOC(=O)C(OCC)Oc1ccccc1Oc1cc(-c2c(Cl)n3n(c2=O)CCCC3)c(F)cc1Cl (centres unmarked) [Compound 3-18] | 5 (Herbicidal effect/phytotoxicity was 90% or greater) | 5 (Herbicidal effect/phytotoxicity was 90% or greater) | 0 (Herbicidal effect/phytotoxicity was 0% to 10%) | – | – | – | – | 5 (Herbicidal effect/phytotoxicity was 90% or greater) | 5 (Herbicidal effect/phytotoxicity was 90% or greater) | 5 (Herbicidal effect/phytotoxicity was 90% or greater) | 5 (Herbicidal effect/phytotoxicity was 90% or greater) | 5 (Herbicidal effect/phytotoxicity was 90% or greater) | 5 (Herbicidal effect/phytotoxicity was 90% or greater) |
| COc1cc(-c2c(Cl)n3n(c2=O)CCOCC3)c(F)cc1F [Example 1-89] | 5 (Herbicidal effect/phytotoxicity was 90% or greater) | 5 (Herbicidal effect/phytotoxicity was 90% or greater) | 0 (Herbicidal effect/phytotoxicity was 0% to 10%) | – | – | – | – | 5 (Herbicidal effect/phytotoxicity was 90% or greater) | 5 (Herbicidal effect/phytotoxicity was 90% or greater) | 5 (Herbicidal effect/phytotoxicity was 90% or greater) | 5 (Herbicidal effect/phytotoxicity was 90% or greater) | 5 (Herbicidal effect/phytotoxicity was 90% or greater) | 5 (Herbicidal effect/phytotoxicity was 90% or greater) |
| COc1cc(-c2c(Cl)n3n(c2=O)CCOCC3)c(Cl)cc1Cl [Example 1-296] | 5 (Herbicidal effect/phytotoxicity was 90% or greater) | 5 (Herbicidal effect/phytotoxicity was 90% or greater) | 0 (Herbicidal effect/phytotoxicity was 0% to 10%) | – | – | – | – | 5 (Herbicidal effect/phytotoxicity was 90% or greater) | 5 (Herbicidal effect/phytotoxicity was 90% or greater) | 5 (Herbicidal effect/phytotoxicity was 90% or greater) | 5 (Herbicidal effect/phytotoxicity was 90% or greater) | 5 (Herbicidal effect/phytotoxicity was 90% or greater) | 5 (Herbicidal effect/phytotoxicity was 90% or greater) |
| C#CCOc1cc(-c2c(Cl)n3n(c2=O)CCCC3)c(F)cc1[N+](=O)[O-] [Example 1-418] | 5 (Herbicidal effect/phytotoxicity was 90% or greater) | 5 (Herbicidal effect/phytotoxicity was 90% or greater) | 0 (Herbicidal effect/phytotoxicity was 0% to 10%) | – | – | – | – | – | – | – | – | – | – |

— patent US9580444B2, “Polycyclic pyrazolinone derivative and herbicide comprising same as effective component thereof” (priority 2013, dated 2017)
